Data reported in patent publication US8344000B2, “Compounds which have activity at M1 receptor and their uses in medicine” (Glaxo Group Limited, priority 2007, dated 2013).

Target: T1, human muscarinic M1 receptors (Homo sapiens, UniProt P11229)
T1 construct: expressed in transfected cells
T1 sequence (P11229 1-460): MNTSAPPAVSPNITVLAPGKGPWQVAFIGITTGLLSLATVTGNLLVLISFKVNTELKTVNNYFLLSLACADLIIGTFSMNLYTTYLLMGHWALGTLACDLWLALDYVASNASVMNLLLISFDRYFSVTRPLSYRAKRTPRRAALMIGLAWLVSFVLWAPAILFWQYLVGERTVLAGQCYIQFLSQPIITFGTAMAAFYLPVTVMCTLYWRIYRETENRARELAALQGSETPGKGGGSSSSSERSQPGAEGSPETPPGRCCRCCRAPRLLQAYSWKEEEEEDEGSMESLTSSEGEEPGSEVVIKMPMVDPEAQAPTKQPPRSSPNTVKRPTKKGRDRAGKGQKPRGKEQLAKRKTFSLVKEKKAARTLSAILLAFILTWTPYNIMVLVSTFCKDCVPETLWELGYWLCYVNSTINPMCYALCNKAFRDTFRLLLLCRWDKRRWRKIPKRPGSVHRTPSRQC
Experiment: FLIPR experiments on M1 receptors (calcium response, CHO-M1 cells)
Assay type: cell-based
Conditions: tested for activity; assay and threshold not specified at the place
Method: FLIPR Experiments on M1 Receptors to Determine Agonist/Antagonist Potency
Compounds of the invention were characterized in a functional assay to determine their ability to activate the intracellular calcium pathway in CHO cells with stable expression of human muscarinic M1 receptors using FLIPR (Fluorometric Imaging Plate Reader) technology. Briefly, CHO-M1 cells were plated (15,000/well) and allowed to grow overnight at 37 degrees. Media were removed and 30 μL loading buffer (HBSS with 2.5 mM probenicid, 2 μM Fluo-4, 500 μM Brilliant Black, pH 7.4) was added. After incubation at 37 degrees for 90 minutes, 10 μL of the assay buffer (HBSS with 2.5 mM probenecid, pH 7.4) containing test compounds was added to each well on the FLIPR instrument. Calcium response was monitored to determine agonism. […] Calcium response was then monitored again to determine compound's antagonism to acetylcholine. […] Results were imported into ActivityBase data analysis suite (ID Business Solution Inc., Parsippany, N.J.) where the curves were analysed by non-linear curve fitting and the resulting pEC50/fpKi were calculated. The maximum asymptotes of agonist compounds were calculated as percentage of maximum FLIPR response induced by carbamoylcholine chloride added as control on the same compound plates.

## Cl.O=C1Cc2ccccc2N1C1CCN(C2CCOCC2)CC1 [1-[1-(Tetrahydro-2H-pyran-4-yl)-4-piperidinyl]-1,3-dihydro-2H-indol-2-one hydrochloride]
  activity: below the threshold value
